Experiments:
maize B104 protoplasts = experiment: Cell division rate by EdU staining (% EdU); settings: O2 5%, Ca^2+ 100 mM, glutathione 0 mM, 90 h
Method: Cell division rates are expressed as “% EdU” (percentage of cells displaying the EdU signal relative to the total cell count).
Cell division was monitored, e.g., by microscopic observations. […] Evidence of cell division was observed by microscopy and included increased cell or protoplast size, bulging membranes, and large groups of organelles occupying the separating daughter cells. Quantification of cell division was carried out using fluorescent staining. […] Cells that are the result of cellular division in the presence of EdU were identified by the resulting green fluorescent signal, which can be quantified by various means, e.g., with a microplate reader, cell counter, or cell sorter.
In a separate experiment, maize HiIIA protoplasts were grown in 24-well plates using YPIM B-liquid medium containing 100 millimolar Ca^2+ and 20 micromolar EdU. Identical plates were incubated under hypoxia (5% oxygen by volume, 26 degrees Celsius, 80% relative humidity) or ambient oxygen (21% oxygen by volume, 26 degrees Celsius, 80% relative humidity). Entire wells (250 microliters) were taken for EdU detection at four time points. The contents of each well was centrifuged and the pellet subjected to the Click-iT™ EdU Alexa Fluor™ 488 Imaging Kit (catalogue number C10337, Thermo Fisher Scientific, Waltham, Mass.) fluorescent labelling protocol. The labelled protoplasts were resuspended in YPIM B-medium and samples analyzed on a Nexcelom Cellometer (Nexcelom Bioscience LLC, Lawrence, Mass.). This assay was developed to detect the EdU signal from the nucleus of a cell resulting from cell division, as well as the fluorescent signal from chloroplasts as a measure of total cell count.
Entire wells (1000 microliters) were taken for EdU detection at three time points; analyses were of duplicate samples of each of two replicate wells.

maize A188 protoplasts = experiment: Protoplast viability (Evans blue staining / light microscope / hemocytometer); format: cell-based; settings: for Viability (%): 100 mM Ca; for viability / appearance: 50 millimolar; for protoplast viability: 288 hours, YPIM B- medium
Method: Separate suspensions of maize B73 and A188 protoplasts (2×10^5 cells per milliliter) were prepared in YPIM B-liquid medium containing various combinations of the added salts calcium chloride, potassium ascorbate, and magnesium chloride or magnesium sulfate. One-half milliliter aliquots of the suspensions were dispensed into a 24-well microtiter plate in the arrangement shown in Table 2, which lists the concentrations of calcium chloride (“Ca”), potassium ascorbate (“A”), and magnesium chloride (“MgCl2”) or magnesium sulfate (“MgSO4”) in millimolar values.
Viability was judged by Evans blue staining and visualization under a light microscope.
Separate suspensions of maize A188 protoplasts (2×10^5 cells per milliliter) were prepared in YPIM B-liquid medium containing calcium chloride at 0 or 50 millimolar. One-half milliliter aliquots of the suspensions were dispensed into a 24-well microtiter plate.
Viability was judged by visualization under a light microscope.
Separate suspensions of maize B73 and A188 protoplasts (2×10^5 cells per milliliter) were prepared in PIM B-liquid medium (identical to YPIM B-medium except with the 6-benzylaminopurine substituted with 0.022 milligrams/L thidiazuron) containing calcium chloride added at 0 or 50 millimolar. One-half milliliter aliquots of the suspensions were dispensed into a 24-well microtiter plate.
Separate suspensions of maize B73 and A188 protoplasts (2×10^5 cells per milliliter) were prepared in YPIM B-liquid medium containing (a) calcium chloride added at 100 millimolar, or (b) 1 millimolar glutathione, or (c) no added calcium or glutathione. One-milliliter aliquots of the suspensions were dispensed into a 24-well microtiter plate. At 16, 40, 64, and 136 hours of culture, 50-microliter samples were taken for hemocytometer analysis from each well; for the plates containing maize A188 protoplasts, parallel 50-microliter samples were taken from a replicate well at 16, 40, and 64 hours of culture for quantification using a Cellometer cell counter (Nexcelom Bioscience LLC, Lawrence, Mass.).
Viability was determined by Evans blue staining and quantification using a hemocytometer. Under conditions with high concentrations of calcium, Evans blue can create precipitates that interfere with cell counting; to prevent this, 5 microliters of an EDTA solution was added to the samples from the wells containing 100 millimolar calcium chloride immediately prior to staining.

With `[Ca+2].[Cl-].[Cl-]` [calcium chloride] the “EdU staining mean %” value (maize B104 protoplasts) was 21.9%, the “Viability (%)” value (maize A188 protoplasts; 0 hours, hemocytometer) was 90% and the “Viability (%)” value (maize A188 protoplasts; 16 hours) was 67%. The “Viability (%)” value (maize A188 protoplasts; 40 hours) was 57%, the “Viability (%)” value (maize A188 protoplasts; 64 hours) was 59% and the “Viability (%)” value (maize A188 protoplasts; 136 hours) was 46%. For the same molecule, the viability / appearance (maize A188 protoplasts; 96 hours, vs no added calcium) was “appeared healthier”, the viability / appearance (maize A188 protoplasts; 168 hours (7 days)) was “very many large, healthy-looking protoplasts” and the protoplast viability (maize A188 protoplasts; 50 mM added salt) was “about 20%”. For the same molecule, the protoplast viability (maize A188 protoplasts; 100 mM added salt) was “about 70%”, the viability (maize A188 protoplasts; day 6, PIM B- medium, 50 millimolar calcium, several wells) was 100% and the “cell wall regeneration and cell division” value (maize A188 protoplasts; day 20, 50 millimolar) was “had generated cell walls and undergone at least some cell division”.

Reference: patent US11168319B1, “Plant cell culture” (Inari Agriculture Technology, Inc., priority 2017, dated 2021)
